Key:
Format in all cases: cell-based, mice
eEF2 phosphorylation = test: p-eEF2 levels in primary cortical neurons (immunoblot)
Source text: Primary neuronal cortical cultures were isolated from P0 or P1 C57BL/6J mice, or eEF2K‐WT or KO mice of either sex as previously described (Wong et al. 2005; Kenney et al. 2015). eEF2K mice were generated by Taconic Biosciences, Cranbury, NJ, USA; all mice were bred from colonies maintained at the Southampton General Hospital. All procedures involving mice were done in accordance with United Kingdom Animals (Scientific Procedures) Act 1986 and approved by the University of Southampton.
Figure 1 Combining pharmacological and genetic strategies with stable isotope labeling of amino acids in cell culture (SILAC)/bio‐orthogonal non‐canonical amino acid tagging (BONCAT) labeling to identify proteins whose synthesis is regulated by eEF2K. (a) Top, the effect of bicuculline administration on p‐eEF2 levels. […] Bottom, examination of the effect of bicuculline on p‐eEF2 levels in neurons from eEF2K‐WT or KO mice. Blots are representative of three to four independent experimental replicates. (b) Experimental designs for combined SILAC/BONCAT labeling to identify proteins whose synthesis are affected by eEF2K inhibition. […] Protein localization was determined using DAVID (Huang et al. 2009), or where DAVID lacked annotation, NCBI.
(§1) Immunoblot data were quantified using LICOR software (version 3.0, Lincoln, NE, USA). Data were analyzed using two‐way ANOVAs. […]

[1] = system: mRNA levels (Calm, Nsf, Ppp1 cc, Kif5a, Map2, Map1b, Arc); test: qRT-PCR of total mRNA levels in primary cortical neurons; settings: bicuculline 50 μM, 60 min; p < 0.001
Method: Neurons were treated with bicuculline (50 μM) or vehicle dimethylsulfoxide for 60 min prior to lysis. JAN‐452 or JAN‐384 was administered 30 min prior to bicuculline/vehicle. RNA was purified from cultures using the GeneJET RNA purification kit (K0731; Thermo Fisher, Waltham, MA, USA) and QIAshredder spin columns (79656; Qiagen, Valencia, CA, USA). One μg of RNA was reverse transcribed using the ImProm‐II reverse transcription system (Promega, Madison, WI, USA). qPCR was performed with 1 μL of cDNA using the GoTaq qPCR master mix (A6001; Promega) on a StepOne real‐time PCR system (Life Technologies, Grand Island, NY, USA). PCR conditions were as follows: 95°C for 2 min followed by 40 cycles of 95°C for 15 s and 60°C for 45 s. Median Ct values from samples run in triplicate were used for analysis using the ΔΔCt method with Gapdh as the control. Prior to use in experiments, all primer pairs were determined to be efficient (100 ± 10%) and yield only one appropriately sized product based on melt‐curve analysis and agarose gel electrophoresis. Primers were as follows: Calm: 5′‐[…]‐3′ and 5′‐[…]‐3′; Nsf: 5′‐ […]‐3′ and 5′‐[…]‐3′; Ppp1 cc: 5′‐ […]‐3′ and 5′‐[…]‐3′; Kif5a: 5′‐ […]‐3′ and 5′‐[…]‐3′; Map2: 5′‐ […]‐3′ and 5′‐[…]‐3′; Map1b: 5′‐ CGGACAGTGCTTTGAGAAC‐3′ and 5‐GTGAGGCTGGCTTTGTTG‐3′; Gapdh: 5′‐[…]‐3′ and 5′‐[…]‐3′; Arc: 5′‐[…]‐3′ and 5′‐[…]‐3′. […]

newly synthesized PPP1CC = test: Newly synthesized protein, AHA labeling, streptavidin isolation and western blot; settings: AHA labeling 1 h; 2 × 2 ANOVA
Method: (§2) Neurons were starved of Met for 30 min in Met‐free neurobasal medium and then labeled for 1 h in the presence of 2 mM AHA. After labeling, neurons were washed three times in ice cold phosphate‐buffered saline (PBS) and then lysed [50 mM Tris‐HCl, 50 mM β‐glycerophosphate, 1 mM EGTA, 1 mM EDTA, 1% Triton‐X, 2 × protease inhibitors (Roche Molecular Biochemicals, Indianapolis, IN, USA)] on ice. The lysate was centrifuged at 14 000 g for 10 min at 4°C and the supernatant was used for click‐chemistry using a biotin‐alkyne (B10185; Invitrogen, Carlsbad, CA, USA) and the protein reaction kit (C10276; Invitrogen) so that only newly synthesized proteins are tagged with biotin. Un‐reacted biotin was removed via gel‐filtration (GE; PD MiniTrap G‐25) using PBS‐T (0.01% Tween) as flow‐through. […]
as §1
(§3) Figure 3 Confirmation of two eEF2K targets identified via stable isotope labeling of amino acids in cell culture (SILAC)/bio‐orthogonal non‐canonical amino acid tagging (BONCAT). […] (c) Quantification of western blot data. *p < 0.01 via 2 × 2 (bicuculline × eEF2K inhibitor) ANOVA; n = 8–9.

newly synthesized NSF = test: as above; settings: AHA labeling 1 h; 2 × 2 ANOVA
Method: as §2, §1, §3

CN1CCc2cc3c(cc2[C@H]1[C@@H]1OC(=O)c2c1ccc1c2OCO1)OCO3 [bicuculline]
eEF2 phosphorylation in neurons from eEF2K-KO mice (eEF2 phosphorylation; eEF2K-KO neurons, completely devoid of eEF2 phosphorylation): did not affect | p-eEF2 level after bicuculline administration (eEF2 phosphorylation; primary cortical neurons, back to baseline levels after 60 min): rapid increase | Arc mRNA [1]: large increase | amount of newly synthesized PPP1CC (newly synthesized PPP1CC): no effect | amount of newly synthesized NSF (newly synthesized NSF): no effect

From PMC4843953, “Eukaryotic elongation factor 2 kinase regulates the synthesis of microtubule‐related proteins in neurons” (Journal of Neurochemistry, 2015)
